One experiment relates to male Zucker obese rats. Description: Oral glucose tolerance test (OGTT) and glucose stimulated insulin secretion after oral BCTC. In kind it is in vivo, rat. To be noted: 6 month old male Zucker obese rats; BCTC 15 mg/kg p.o. at -30 min; glucose 2 g/kg po at time 0; vs vehicle. The source says: Laboratory animals: Male (n=19) Zucker obese rats were purchased from Charles River Laboratories, U.S. The rats were transported to Denmark at the age of 6 weeks and were kept under ambient controlled conditions on a normal day light cycle (lights on at 6 am, lights off at 6 pm) at the Måløv Animal Unit at Novo Nordisk A/S, Denmark from then and until the age of 9 month of age. The rats were kept in groups of 3 rats per cage until the end of the experiment in standard cages (Eurostandard Type IV, Techniplast, Scanbur, Denmark) and were given free access to acidified (0.4% citric acid) tap water and standard chow (Altromin, Brogaarden Aps, Denmark). The cages were supplied with wooden wool (Brogaarden, Denmark) as nesting material and the bedding material was aspen chips (Brogaarden, Denmark), changed twice per week as was the bottles of acidified water.
At 6 month of age, an OGTT was performed shortly after administering a capsaicin receptor antagonist (BCTC) orally. […] Fasting blood glucose and plasma insulin was determined as described below. […] The rats were left in the cage until time 0 where blood glucose was assessed followed by the OGTT. […] Blood glucose and plasma insulin was determined at time 30, 60 and 120 min after glucose. […] Following the experiment, glucose was determined using the glucose oxidase method (EBIO, Eppendorf, Germany). […]

The target in the next experiment is T1, capsaicin receptor (Rattus norvegicus, UniProt O35433).
T1 construct: host or cells: whole animal (in vivo pain models)
To be noted: literature refs 22, 23; cited from earlier work.

A further experiment relates to F4/80. Description: Relative gene expression of F4/80 in mesenteric adipose tissue (quantitative RT-PCR). In kind it is in vivo, rat. To be noted: 9 month old Zucker obese rats; 1 hour after BCTC 15 mg/kg po; vehicle as calibrator, 36B4 internal standard. How it is done:
(§1) At 9 months of age, the same rats were tested re. mesenteric inflammatory mediators. The rats were fasted for 18 hours where after they were given BCTC at 15 mg/kg (n=10) or vehicle (n=9) orally by gavage. One hour after treatment, the rats were anaesthetized in isoflurane and decapitated. The mesenteric adipose tissue was quickly removed and transferred to 10× volume pre-chilled RNAlater (Sigma-Aldrich, USA) and stored at −20° C. To prevent area to area effect on gene expressions patterns, 0, 5-1 g tissue was homogenized in TRIzol Reagent (1 ml/100 mg tissue) (TRIzol; Invitrogen Corp.). […] PCR amplification mixtures (25 μl) contained 12.5 μl of 2× Platinum Quantitative PCR SuperMix-UDG (Invitrogen Corp.), 0.625 μl of reverse primer (20 μM), 0.625 μl forward primers (20 μM), 0.625 μl Probe (10 μM) (ProbeLibrary Exiqon A/S, Denmark) and 5 μl diluted cDNA template. Real-time quantitative PCR was carried out using MX3000P PCR machine (Stratagene, USA) with the following cycling parameters: polymerase activation for 10 minutes at 95° C. and amplification for 40 cycles of 30 seconds at 95° C. and 60 seconds at 60° C. […]
(§2) Relative gene expression of iNOS and F4/80 were determined by quantitative RT-PCR comparative Ct method (Applied Biosystems. User Bulletin #2. ABI PRISM 7700 sequence detection system, 1997) using vehicle as calibrator. […]

The next experiment relates to iNOS. In words: Relative gene expression of iNOS in mesenteric adipose tissue (quantitative RT-PCR). To be noted: 9 month old Zucker obese rats; 1 hour after BCTC 15 mg/kg po; vehicle as calibrator, 36B4 internal standard. The experiment is classed as in vivo, rat. The protocol: as §1, §2

T1 sequence (O35433 whole entry): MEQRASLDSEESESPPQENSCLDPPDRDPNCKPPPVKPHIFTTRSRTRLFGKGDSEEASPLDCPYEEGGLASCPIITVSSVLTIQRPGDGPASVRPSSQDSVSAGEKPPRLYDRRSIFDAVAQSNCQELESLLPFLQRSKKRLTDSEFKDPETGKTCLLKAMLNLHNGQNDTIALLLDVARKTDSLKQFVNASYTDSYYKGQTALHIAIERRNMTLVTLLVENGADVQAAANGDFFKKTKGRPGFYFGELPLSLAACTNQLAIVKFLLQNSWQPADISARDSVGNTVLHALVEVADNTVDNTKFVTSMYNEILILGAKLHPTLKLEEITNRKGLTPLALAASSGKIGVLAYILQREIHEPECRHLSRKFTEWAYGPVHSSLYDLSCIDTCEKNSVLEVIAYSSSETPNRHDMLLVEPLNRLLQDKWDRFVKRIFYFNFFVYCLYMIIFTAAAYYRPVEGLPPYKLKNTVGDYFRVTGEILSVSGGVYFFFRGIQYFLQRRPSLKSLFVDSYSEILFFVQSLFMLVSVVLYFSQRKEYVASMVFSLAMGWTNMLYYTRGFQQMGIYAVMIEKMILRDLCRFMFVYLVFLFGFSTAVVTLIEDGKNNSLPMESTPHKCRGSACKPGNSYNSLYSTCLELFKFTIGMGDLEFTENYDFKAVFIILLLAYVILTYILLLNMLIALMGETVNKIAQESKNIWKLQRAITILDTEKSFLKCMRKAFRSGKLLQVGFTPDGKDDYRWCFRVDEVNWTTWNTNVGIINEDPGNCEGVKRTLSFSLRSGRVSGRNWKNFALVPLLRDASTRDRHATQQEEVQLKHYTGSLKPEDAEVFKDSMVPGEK

Take `CC(C)(C)c1ccc(NC(=O)N2CCN(c3ncccc3Cl)CC2)cc1` [BCTC, N-(4-tertiarybutylphenyl)-4-(3-chloropyridin-2-yl)tetrahydropyrazine-1(2H)-carbox-amide]: in the experiment on male Zucker obese rats, the “blood glucose after oral glucose tolerance test” value is “diminished rise in blood glucose” and the “plasma insulin after oral glucose load (glucose stimulated insulin response)” value is “considerable higher levels of insulin in plasma”. In addition, the “inhibiting capsaicin-mediated hyperalgesia, inflammatory hyperalgesia or allodynia, and hyperalgesia after nerve injury” value at capsaicin receptor is reported as “shown effective”. Further, in the experiment with F4/80, the “gene expression of F4/80 in mesenteric adipose tissue” value is reported as “significantly lower level”. Moreover, the “gene expression of iNOS in mesenteric adipose tissue” value in the experiment on iNOS was “significantly lower level”.

These data come from patent US7879866B2, “Inhibition of the activity of the capsaicin receptor in the treatment of obesity or obesity-related diseases and disorders” (Dorte Xenia Gram, priority 2004, dated 2011).
